Data: patent US6610681B1, “Neurotherapeutic clavulanate composition and method” (Revaax Pharmaceuticals, LLC, priority 1999, dated 2003)
Entries after “also recorded” stand apart in the source; their conditions may differ.

What was measured:
[1] = system: male Syrian golden hamsters; experiment: golden hamster seed finding model of anxiety; type: in vivo, Mesocricetus auratus
From the text: Clavulanic acid (CLAV) is structurally similar to the beta-lactam antibiotics. A most robust and simple bioassay for screening beta-lactams for CNS activity is the golden hamster seed finding model of anxiety. Briefly, hamsters are deprived of food overnight. The following day they are exposed to the additional stress of being taken from their home cage and placed in a novel environment for a few minutes. This manipulation stimulates the release of the stress hormone cortisol (FIG. 13). During their absence from the home cage, sunflower seeds are hidden under the bedding in one of the corners. When returned to the home cage, hamsters routinely scramble along the walls for 1-2 min before settling down, locating and eating the seeds. However, animals treated with the benzodiazepine anxiolytic chlordiazepoxide find seeds in less than 10 sec.
Male, Syrian golden hamsters (Mesocricetus auratus) (120-130 g) obtained from Harlan Sprague-Dawley Laboratories (Indianapolis, Ind.) were housed individually in Plexiglas cages (24 cm×24 cm×20 cm), maintained on a reverse light:dark cycle (14L: 10D; lights on at 19:00 hr) and provided food and water ad libitum. A range of concentrations of CLAV (saline vehicle, 0.1, 1.0, 10, 100 1,000 ng/kg) were tested in six groups of hamsters (4-8/group)(FIG. 1). All tests were conducted during the dark phase of the circadian cycle under dim red illumination. Prior to testing all animals were fasted for 20-24 hrs. Ninety min after intraperitoneal (IP) injection of drug, animals were taken from their home cage and placed into a holding cage for 2 min. During their absence, six sunflower seeds were buried under the bedding in one corner of their home cage. Animals were placed back into their home cage randomly facing any one of the empty corners and timed for their latency to find the seeds in a five min observation period. Latency times were analyzed with a one-way ANOVA followed by Scheffe's post hoc tests. Assumption of equal variances was tested (Hartley's F-max=2.1 p>0.05)
It was hypothesized that CLAV functioned as an anxiolytic in the seed finding assay by blocking NAALADase activity in the brain. If this notion were true then it would be predicted that drugs known to block NAALADase should also enhance seed finding. To this end, animals were treated with N-acetyl-beta-aspartyl-glutamic acid (beta-NAAG), a competitive inhibitor of NAALADase (Serval et al., 1992) and tested in the seed finding model of anxiety. The study was similar to that outlined in Section I with one notable exception. […] Beta-NAAG (FW 304) was given in a dose of 3 ng in a volume of 1 μl saline ICV. The average adult hamster brain weights ca. 1.2 g of which 22% is extracellular fluid. The estimated beta-NAAG concentration was 11 ng/ml or 36 nM.
Two groups of six animals each were fasted overnight as previously described and tested the following day. One group was treated with beta-NAAG and the other saline vehicle and one hr later timed for latency to find the hidden sunflower seeds. A Student t-test for unpaired data was used for statistical comparisons.

male golden hamsters = experiment: resident/intruder paradigm of offensive aggression; type: in vivo, hamster
From the text: Agonistic behavior can be classified as either offensive or defensive aggression (Blanchard and Blanchard, 1977; Adams, […]; Albert and Walsh, 1984). Offensive aggression is characterized by an aggressor initiating an attack on an opponent; while, defensive aggression lacks active approach. Both types of aggression have their own unique neurobehavioral systems. The stimuli that elicit offensive and defense attack are different, as are the sequences of behaviors that accompany each agonistic response. […] Offensive aggression is easily studied using male golden hamsters tested in a resident/intruder paradigm, an established model of offensive aggression (Ferris and Potegal 1988) in the context of defending the home burrow. Placing an unfamiliar male hamster into the home cage of another male hamster elicits a well-defined sequence of agonistic behaviors from the resident that includes offensive aggression.
Hamsters are nocturnal and as such all behavioral tests were performed during the first four hrs of the dark phase under dim red illumination. The resident was scored for offensive aggression, e.g., latency to bite the intruder, the total number of bites, total contact time with the intruder and flank marking over a 10 min test period (Ferris and Potegal, 1988). Flank marking is a form of olfactory communication in which a hamsters arches its back and rubs pheromone producing flank glands against objects in the environment (Johnston, 1986).
Five male golden hamsters (130-140 g) were given IP injections of CLAV (200 μg/kg) and saline vehicle in a volume of ca. 0.2 ml. […] Vehicle and CLAV treatments were counter balanced and randomized so all five animals received each treatment separated by at least 48 hrs. Animals were tested 90 min after treatment over a 10 min observation period. Latencies and contact time were analyzed with a two-way ANOVA. Non-parametric data, i.e., number of bites and flank marks were analyzed by Wilcoxon matched-pairs signed-ranks test.
The animals tested in this study were those used in Section IX. After the seed finding assay, beta-NAAG (n=6) and saline vehicle (n=6) treated animals remained in their home cage and were presented with a smaller, male intruder. The resident was scored for latency to bite, bites, contact time and flank marking over a 10 min observation period. Latency to bite and contact time between treatments were compared with Student t-tests. Non-parametric measures of bites and flank marks for beta-NAAG vs vehicle were compared with Mann-Whitney.

| SMILES | latency to find the sunflower seeds vs vehicle ([1]; 1 ng/kg IP, 90 min) | estimated concentration in extracellular water at the 10 ng/kg dose ([1]; 1.25 ng in 27.5 ml) | effective dose (maximal efficacy) in the seed finding test ([1]; IP) | latency to find the sunflower seeds ([1]; doses of 10 ng and above, IP, 90 min, vehicle 104 sec) | estimated concentration in the brain at the 10 ng/kg dose ([1]; from CSF/plasma ratio 0.25) | antiaggressive properties (summary) (male golden hamsters; 200 μg/kg) | contact time with the intruder (male golden hamsters; 200 μg/kg IP, 90 min) | flank marking behavior (male golden hamsters; 200 μg/kg IP, 90 min) | latency to bite the intruder (male golden hamsters; 200 μg/kg IP, 90 min, trend toward significance) | median number of bites (male golden hamsters; 200 μg/kg IP, 90 min, vehicle thirteen) | aggressive behavior, pilot studies (male golden hamsters; IP at 1.0 μg/kg) | change of seed finding time ([1]; dose not given) | aggression (male golden hamsters; i.p. at 50 micrograms/kg, hamster) |
| --- | --- | --- | --- | --- | --- | --- | --- | --- | --- | --- | --- | --- | --- |
| O=C(O)[C@H]1/C(=C/CO)O[C@@H]2CC(=O)N21 [CLAV, clavulanic acid] | not significantly different from vehicle control | 0.045 ng/ml and about 200 pM | 0.01 µg/kg | less than 8.0 sec | around 50 pM | modest antiaggressive or serenic-like properties | no significant main effect for drug treatment | unaffected; also recorded: no significant effect of drug treatment | no significant main effect for drug treatment | six | no effect on aggressive behavior | – | – |
| CO[C@@]1(NC(=O)C(C(=O)O)c2ccc(O)cc2)C(=O)N2C(C(=O)O)=C(CSc3nnnn3C)CO[C@@H]21 (stereo partly drawn) [Moxalactam, 7-β-[2-carboxy-2-(4-hydroxyphenyl)acetamido]-7α-methoxy-3-[[(1-methyl-1H-tetrazol-5-yl)thio]methyl]-1-oxa-1-dethia-3-cephem-4-carboxylic acid] | – | – | – | – | – | – | – | – | – | – | – | reduction in seed finding time from minutes to seconds | inhibits aggression in hamster |
